Reference: ChEMBL document CHEMBL6087456 (J Med Chem, 2025)
pEC50, pIC50: −log10 of the molar value. In brackets after ≈: the same amount, converted by molar mass.

What was measured:
[1] = Kinetic solubility of compound at pH 6.5 measured after 30 mins by nephelometry; type: physicochemical; conditions: buffer; for Kinetic_solubility: pH 6.5, 0.5 h; for solubility kinetic at 0.5 h: pH 6.5, read-out: Kinetic_solubility
Plasmodium falciparum = test: Antiparasitic activity against asexual blood stage Plasmodium falciparum 3D7 incubated for 72 hrs by SYBR Green assay; type: functional, organism-based; conditions: 3D7, 72 h
[2] = biological target: Dihydroorotate dehydrogenase (quinone), mitochondrial (Homo sapiens, UniProt Q02127); test: Inhibition of C-terminal His6-tagged recombinant human DHODH (29 to 395 residues) N-terminally truncated soluble domain extracted from Escherichia coli phage resistant BL21-DE3 using CoQD/DHA/DCIP as substrates
Sequence of Dihydroorotate dehydrogenase (quinone), mitochondrial (Q02127 whole entry, the tested form may be a part): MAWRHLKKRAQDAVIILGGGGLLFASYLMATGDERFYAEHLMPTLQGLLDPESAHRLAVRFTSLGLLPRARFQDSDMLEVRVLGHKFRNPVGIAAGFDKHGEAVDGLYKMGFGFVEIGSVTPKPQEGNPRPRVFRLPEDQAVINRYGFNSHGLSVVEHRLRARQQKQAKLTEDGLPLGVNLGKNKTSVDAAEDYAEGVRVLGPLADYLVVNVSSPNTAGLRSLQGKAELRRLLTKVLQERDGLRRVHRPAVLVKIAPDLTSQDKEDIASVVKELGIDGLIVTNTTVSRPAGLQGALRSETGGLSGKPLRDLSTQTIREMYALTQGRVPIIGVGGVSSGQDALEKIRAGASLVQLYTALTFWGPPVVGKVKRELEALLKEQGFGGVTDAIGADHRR

[3] = Metabolic stability in human liver microsomes assessed as intrinsic clearance at 0.5 uM incubated for 60 mins in presence of NADPH by tandem quadrupole-Time of Flight MS; type: ADME, Microsome; conditions: 1 h

Structure (SMILES)	Kinetic_solubility [1]	pEC50 (Plasmodium falciparum)	pIC50 [2]	intrinsic clearance (CLint) [3]	solubility kinetic at 0.5 h [1]
CCn1cc(C2CC2)c2c(CN3CCC(C)(F)CC3)n(C)nc2c1=O	> 100 µM	7.74	< 4.52	18 µL/min/mg	–
CCn1cc(C2CC2)c2c(Cc3cnc(C(F)(F)F)c(C)c3)n(C)nc2c1=O	–	8.40	4.17	24 µL/min/mg	50 µM (≈ 19.5 µg/mL)
CCCn1ccc2c(Cc3ccc(C(F)(F)F)nc3)n(C)nc2c1=O	–	4.85	–	–	–
Cn1nc2c(=O)n(C3CC3)ncc2c1[C@](O)(c1cnc(C(F)(F)F)c(Cl)c1)C1CC1	–	7.82	< 4.52	5.4 µL/min/mg	20 µM (≈ 8.8 µg/mL)
Cn1nc2c(=O)n(C3CC3)ccc2c1[C@](O)(c1ccc(C(F)(F)F)c(Cl)c1)C(F)(F)F	–	–	5.37	< 3 µL/min/mg	5 µM (≈ 2.33 µg/mL)
Cn1nc2c(=O)n(C3CC3)ccc2c1[C@](C)(O)c1cnc(C(F)(F)F)c(Cl)c1	–	9.00	< 4.52	6.8 µL/min/mg	80 µM (≈ 33 µg/mL)
Cn1nc2c(=O)n(C3CC3)cnc2c1[C@](O)(c1cnc(C(F)(F)F)c(Cl)c1)C1CC1	–	8.40	< 4.52	< 3 µL/min/mg	80 µM (≈ 35.2 µg/mL)
CC[C@@](N)(c1ccc(C(F)(F)F)c(Cl)c1)c1c2cnn(C3CC3)c(=O)c2nn1C	–	8.52	–	< 3 µL/min/mg	20 µM (≈ 8.52 µg/mL)
CC[C@@](O)(c1cc(F)c(F)c(F)c1)c1c2ccn(C3CC3)c(=O)c2nn1C	–	9.00	5.68	6 µL/min/mg	50 µM (≈ 18.9 µg/mL)
Cn1nc2c(=O)n(C3CC3)cc(Cl)c2c1Cc1ccc(C(F)(F)F)nc1	–	7.70	4.80	10 µL/min/mg	70 µM (≈ 26.8 µg/mL)
CCn1cc(C)c2c([C@H](O)c3cnc(C(F)(F)F)c(Cl)c3)n(C)nc2c1=O	–	7.96	< 4.00	3.2 µL/min/mg	160 µM (≈ 64.1 µg/mL)
CC[C@@](O)(c1cc(F)c(Cl)c(F)c1)c1c2ccn(C3CC3)c(=O)c2nn1C	–	9.00	–	3.2 µL/min/mg	50 µM (≈ 19.7 µg/mL)
CCn1cc(C2CC2)c2c([C@@H](O)c3ccc(C(F)(F)F)nc3)n(C)nc2c1=O	–	5.68	–	–	–
CCn1cc(C2CC2)c2c(CN3CCCC(F)(F)C3)n(C)nc2c1=O	–	7.03	–	26 µL/min/mg	80 µM (≈ 28 µg/mL)
CC[C@@](O)(c1ccc(C(F)(F)F)nc1)c1c2ccn(C3CC3)c(=O)c2nn1C	–	8.52	5.30	< 3 µL/min/mg	40 µM (≈ 15.7 µg/mL)
CCn1cc(C2CC2)c2c([C@H](O)c3ccc(C(F)(F)F)nc3)n(C)nc2c1=O	–	8.10	< 4.00	15 µL/min/mg	160 µM (≈ 62.8 µg/mL)
CC[C@](O)(c1cnc(C(F)(F)F)c(Cl)c1)c1c2cnn(C3CC3)c(=O)c2nn1C	–	5.77	–	–	–
CCn1ccc2c([C@](C)(O)c3cnc(C(F)(F)F)c(Cl)c3)n(C)nc2c1=O	–	9.00	< 4.00	25 µL/min/mg	80 µM (≈ 32.1 µg/mL)
Cn1nc2c(=O)n(C3CC3)ncc2c1[C@@](O)(c1cnc(C(F)(F)F)c(Cl)c1)C(F)(F)F	–	6.15	–	–	–
Cn1nc2c(=O)n(C3CC3)ccc2c1[C@@](O)(c1cnc(C(F)(F)F)c(Cl)c1)C(F)(F)F	–	6.39	–	–	–
CC[C@@](O)(c1cnc(C(F)(F)F)c(Cl)c1)c1c2ncn(C3CC3)c(=O)c2nn1C	> 100 µM	9.00	–	3.7 µL/min/mg	–
Cc1cc(Nc2ccc(S(F)(F)(F)(F)F)cc2)n2nc(C(C)(F)F)nc2n1 [DSM-265]	–	8.15	–	–	–
